Measurements reported in US20160096016A1, “METHODS AND SYSTEMS FOR REDUCING INFLAMMATION BY NEUROMODULATION AND ADMINISTRATION OF AN ANTI-INFLAMMATORY DRUG” (priority 2008, published 2016).
Entries after “also recorded” stand apart in the source; their conditions may differ.

Legend:
[1] = system: LPS-stimulated spleen cells; assay: TNF production by LPS-stimulated spleen cells; format: cell-based, BALB/c mice; settings: 5×10^6 cell/well, LPS 500 ng/mL, 4 hours; increasing concentrations; FIG. 7A
Method: (§1) In this example, differing concentrations of Paraoxon were included in various individual wells (having 5×10^6 cell/well) with a total volume of 250 microliters/well, and stimulated for 4 hours with LPS (500 ng/mL).

spleen cells = assay: Viability of LPS-stimulated spleen cells; settings: concentrations of Paraoxon used in FIG. 7A; FIG. 7B
Method: as §1

TNF production = settings: endotoxemia; nicotine 2 mg/kg i.p. 30 minutes prior to endotoxin
Method: Adult male BALB/c mice 8 to 12 weeks-old (20-25 g; Taconic) and adult male Sprague Dawley rats 8 to 12 weeks-old (250-300 g, Charles River Laboratories) were housed at 25° C. on a 12-hour light/dark cycle, and let acclimatize for one week before experiments were conducted. Water and regular rodent chow were available ad libitum. Experiments were performed under protocols approved by the Institutional Animal Care and Use Committee of the Feinstein Institute for Medical Research, North Shore-LIJ Health System.
Endotoxin (LPS from E. coli, 0111:B4, Sigma-Aldrich) was injected to animals (10 mg/kg, i.p. corresponding to a LD75 dose). Blood and spleens were harvested 10, 30, 60 or 120 minutes after LPS administration. We used ELISA to determine TNF concentration in serum (R&D Systems). Spleens were either snap frozen for further immunofluorescence analysis or disrupted in PBS plus protease inhibitor cocktail (Complete mini, Roche) with a tissue homogenizer (Polytron 3100, Kinematica). TNF content in spleen tissue was determined by ELISA and normalized to protein concentration (Protein Assay, BioRad). In some experiments, PBS or nicotine (Sigma-Aldrich) was injected 30 minutes (2 mg/kg, i.p.) prior to endotoxin administration. Animals were then euthanized 60 minutes later and spleens were harvested for TNF immunofluorescence or TNF quantification in tissue homogenates.

SMILES | TNF production by LPS-stimulated spleen cells [1] | toxicity / cell viability (spleen cells) | TNF production by TNF-producing splenic macrophages (TNF production)
CCOP(=O)(OCC)Oc1ccc([N+](=O)[O-])cc1 [Paraoxon] | dose-dependent inhibition of TNF; also recorded: dose-dependently attenuated TNF levels; also recorded: the greater the inhibition of TNF | no significant toxicity; also recorded: without affecting cell viability; also recorded: no significant loss of viability | –
CN1CCCC1c1cccnc1 (stereo not drawn) [nicotine] | – | – | significantly attenuates TNF production
